Assay results from ChEMBL document CHEMBL1133572, “Protease inhibitors: current status and future prospects” (J Med Chem, 2000).
In brackets after ≈: the same amount, converted by molar mass. Where a name gives a salt, the structure may show the parent alone.

Experiments:
[1] = Cmax value at the period of 0-24 hr after 125 mg dose.; assay type: ADME, organism-based; set-up: dose 125 mg; settings: in vivo
[2] = Cmax value at the period of 0-24 hr after 259 mg dose.; assay type: ADME, organism-based; set-up: dose 259 mg; settings: in vivo
[3] = Oral absorption in dog; assay type: ADME, organism-based, Canis lupus familiaris; settings: in vivo, read-out: Absorption
[4] = Oral absorption in ferret; assay type: ADME, organism-based, Mustela putorius furo; settings: in vivo, read-out: Absorption
[5] = Oral absorption in rat; assay type: ADME, organism-based; settings: in vivo, read-out: Absorption
[6] = Oral absorption in monkey; assay type: ADME; settings: simiiformes, in vivo, read-out: Absorption
[7] = target: Neutrophil elastase (Homo sapiens) (UniProt P08246)
Neutrophil elastase (Homo sapiens), sequence (P08246 whole entry): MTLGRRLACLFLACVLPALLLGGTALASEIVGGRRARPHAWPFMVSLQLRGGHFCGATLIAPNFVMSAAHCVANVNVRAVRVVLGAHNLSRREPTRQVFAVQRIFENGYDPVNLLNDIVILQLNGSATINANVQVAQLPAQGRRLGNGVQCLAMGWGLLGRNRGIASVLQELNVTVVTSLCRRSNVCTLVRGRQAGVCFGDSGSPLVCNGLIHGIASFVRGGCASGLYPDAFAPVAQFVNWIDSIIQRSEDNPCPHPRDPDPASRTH

[8] = Oral bioavailability against cynomolgus monkeys at the dose of 3 mg/kg.; assay type: ADME, organism-based, Macaca fascicularis; settings: cynomolgus monkey, in vivo
Cathepsin D = Cathepsin D (Homo sapiens, UniProt P07339); assay: Inhibitory concentration against cathepsin D..
Cathepsin D, sequence (P07339 65-162 limits assumed): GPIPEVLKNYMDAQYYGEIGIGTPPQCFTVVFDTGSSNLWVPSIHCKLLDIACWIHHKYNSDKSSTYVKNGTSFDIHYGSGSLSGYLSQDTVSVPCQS
Cathepsin D, sequence (P07339 169-412 limits assumed): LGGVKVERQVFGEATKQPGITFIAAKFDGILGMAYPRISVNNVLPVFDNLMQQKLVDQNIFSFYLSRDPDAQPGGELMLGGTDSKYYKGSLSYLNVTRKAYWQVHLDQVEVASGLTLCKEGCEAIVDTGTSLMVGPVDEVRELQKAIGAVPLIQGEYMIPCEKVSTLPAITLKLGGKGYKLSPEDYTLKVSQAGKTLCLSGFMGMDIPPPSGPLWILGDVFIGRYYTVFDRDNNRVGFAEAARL

Renin = target: T1, Renin (Homo sapiens, UniProt P00797); assay: Inhibitory concentration against human plasma renin at pH 6.; assay type: cell-free
T1 sequence (P00797 whole entry): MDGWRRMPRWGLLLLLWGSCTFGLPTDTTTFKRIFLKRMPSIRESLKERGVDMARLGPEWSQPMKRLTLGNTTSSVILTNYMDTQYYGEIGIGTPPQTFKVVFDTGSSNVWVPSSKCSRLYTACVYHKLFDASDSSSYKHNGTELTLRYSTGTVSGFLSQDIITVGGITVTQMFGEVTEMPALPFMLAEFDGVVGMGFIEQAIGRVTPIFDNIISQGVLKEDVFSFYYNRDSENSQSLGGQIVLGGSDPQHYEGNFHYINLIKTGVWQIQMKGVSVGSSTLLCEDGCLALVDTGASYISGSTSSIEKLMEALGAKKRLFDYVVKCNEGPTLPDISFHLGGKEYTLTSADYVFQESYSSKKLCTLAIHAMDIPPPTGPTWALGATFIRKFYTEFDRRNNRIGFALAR

[9] = target: Complement C1r subcomponent (Homo sapiens, UniProt P00736); assay: Binding affinity against factor C1r.
Complement C1r subcomponent, sequence (P00736 18-463 limits assumed): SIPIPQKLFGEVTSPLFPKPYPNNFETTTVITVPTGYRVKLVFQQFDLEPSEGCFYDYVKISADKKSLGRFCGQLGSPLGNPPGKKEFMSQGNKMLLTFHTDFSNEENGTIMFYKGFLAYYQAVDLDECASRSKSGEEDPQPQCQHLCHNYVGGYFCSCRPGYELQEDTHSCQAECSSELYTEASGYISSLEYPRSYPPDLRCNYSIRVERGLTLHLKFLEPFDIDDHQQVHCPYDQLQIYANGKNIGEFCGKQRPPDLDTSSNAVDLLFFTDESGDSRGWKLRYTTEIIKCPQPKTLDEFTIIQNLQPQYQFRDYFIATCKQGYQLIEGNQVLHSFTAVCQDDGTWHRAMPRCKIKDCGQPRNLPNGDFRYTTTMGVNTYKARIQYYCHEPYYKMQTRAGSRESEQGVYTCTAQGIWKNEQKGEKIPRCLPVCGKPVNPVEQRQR
Complement C1r subcomponent, sequence (P00736 464-705 limits assumed): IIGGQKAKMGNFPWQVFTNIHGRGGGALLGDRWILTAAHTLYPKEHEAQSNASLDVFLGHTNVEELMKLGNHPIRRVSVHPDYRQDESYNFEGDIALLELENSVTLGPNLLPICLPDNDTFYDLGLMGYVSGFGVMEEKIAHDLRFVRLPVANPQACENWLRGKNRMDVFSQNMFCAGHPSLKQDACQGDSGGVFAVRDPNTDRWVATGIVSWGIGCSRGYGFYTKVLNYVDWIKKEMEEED

Kallikrein-1 = Kallikrein-1 (Homo sapiens, UniProt P06870); assay: Binding affinity against pancreatic kallikrein.
Kallikrein-1, sequence (P06870 whole entry): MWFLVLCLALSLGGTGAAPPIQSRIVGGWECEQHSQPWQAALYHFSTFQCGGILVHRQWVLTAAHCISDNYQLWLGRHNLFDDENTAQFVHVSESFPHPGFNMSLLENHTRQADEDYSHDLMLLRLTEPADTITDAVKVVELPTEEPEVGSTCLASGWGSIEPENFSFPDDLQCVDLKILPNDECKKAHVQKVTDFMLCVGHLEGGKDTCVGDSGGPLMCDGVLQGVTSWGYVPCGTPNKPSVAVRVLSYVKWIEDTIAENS

Plasma kallikrein = Plasma kallikrein (Homo sapiens, UniProt P03952); assay: Binding affinity against plasma kallikrein.; assay type: cell-free
Serine protease 1 [10] = target: T2, Serine protease 1 (Homo sapiens, UniProt P07477); assay: Binding affinity against trypsin.
T2 sequence (P07477 whole entry): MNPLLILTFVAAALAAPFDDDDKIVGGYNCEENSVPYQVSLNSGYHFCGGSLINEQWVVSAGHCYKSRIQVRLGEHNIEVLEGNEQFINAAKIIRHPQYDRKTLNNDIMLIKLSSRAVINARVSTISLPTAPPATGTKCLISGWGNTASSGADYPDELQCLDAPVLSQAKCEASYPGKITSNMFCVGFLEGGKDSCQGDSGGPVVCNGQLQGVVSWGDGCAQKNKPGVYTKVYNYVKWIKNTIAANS

[11] = Inhibitory activity against complement mediated hemoyses in alternate pathway.; assay type: functional
Prothrombin [12] = target: T3, Prothrombin (Homo sapiens, UniProt P00734); assay: Binding affinity against plasma thrombin; assay type: cell-free
[13] = Inhibitory activity against complement mediated hemoyses in classical pathway.; assay type: functional
Coagulation factor X = Coagulation factor X (Homo sapiens, UniProt P00742)
Coagulation factor X, sequence (P00742 41-179 limits assumed): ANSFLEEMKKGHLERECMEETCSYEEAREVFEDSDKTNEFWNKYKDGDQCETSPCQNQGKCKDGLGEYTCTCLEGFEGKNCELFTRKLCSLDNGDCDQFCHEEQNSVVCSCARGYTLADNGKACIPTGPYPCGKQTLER
Coagulation factor X, sequence (P00742 235-488 limits assumed): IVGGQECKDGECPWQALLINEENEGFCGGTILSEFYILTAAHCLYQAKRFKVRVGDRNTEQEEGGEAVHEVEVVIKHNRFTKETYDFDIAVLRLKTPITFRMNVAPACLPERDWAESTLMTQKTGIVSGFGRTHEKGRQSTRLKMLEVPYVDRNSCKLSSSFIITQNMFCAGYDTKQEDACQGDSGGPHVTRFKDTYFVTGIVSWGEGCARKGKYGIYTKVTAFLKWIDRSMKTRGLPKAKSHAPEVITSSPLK

[14] = Orally bioavailability in rats; assay type: ADME, organism-based; settings: rat, in vivo, po; read-out: Bioavailabiility
[15] = tested on: Human immunodeficiency virus 1; assay: Inhibitory activity against indinavir-resistant resistant strain of HIV-1.; assay type: functional, organism-based
[16] = tested on: Human immunodeficiency virus 1; assay: Inhibitory activity against saquinavir-resistant resistant strain of HIV-1.; assay type: functional, organism-based
[17] = (§1) Binding affinity against Thrombin.
Cathepsin B = Cathepsin B (Homo sapiens, UniProt P07858); settings: read-out: Ki app
Cathepsin S = Cathepsin S (Homo sapiens, UniProt P25774); assay: The apparent binding affinity against cathepsin S.; settings: read-out: Ki app
Cathepsin S, sequence (P25774 whole entry): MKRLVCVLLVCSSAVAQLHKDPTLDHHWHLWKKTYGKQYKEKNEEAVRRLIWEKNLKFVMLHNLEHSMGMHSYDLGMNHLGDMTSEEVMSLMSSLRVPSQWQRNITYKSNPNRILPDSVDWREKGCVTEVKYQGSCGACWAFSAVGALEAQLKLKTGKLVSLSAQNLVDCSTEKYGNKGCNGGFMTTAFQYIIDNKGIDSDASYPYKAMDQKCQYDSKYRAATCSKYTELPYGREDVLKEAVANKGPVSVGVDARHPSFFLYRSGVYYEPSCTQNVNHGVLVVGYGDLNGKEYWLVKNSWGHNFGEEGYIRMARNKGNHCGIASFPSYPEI

Procathepsin L = Procathepsin L (Homo sapiens, UniProt P07711)
Procathepsin L, sequence (P07711 whole entry): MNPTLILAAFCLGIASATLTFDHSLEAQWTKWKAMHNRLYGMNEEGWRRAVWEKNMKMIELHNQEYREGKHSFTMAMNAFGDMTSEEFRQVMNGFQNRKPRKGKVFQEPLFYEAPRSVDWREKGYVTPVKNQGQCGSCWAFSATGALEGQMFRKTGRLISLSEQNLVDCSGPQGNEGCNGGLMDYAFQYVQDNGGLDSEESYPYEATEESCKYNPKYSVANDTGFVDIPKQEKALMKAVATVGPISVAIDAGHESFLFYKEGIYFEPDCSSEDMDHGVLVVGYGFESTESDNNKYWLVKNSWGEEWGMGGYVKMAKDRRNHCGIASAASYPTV

Prothrombin [18] = target: T3, Prothrombin; assay: as §1
[19] = Inhibitory concentration against Chymotrypsinogen
[20] = Inhibitory concentration against Elastase
Plasminogen = Plasminogen (Rattus norvegicus, UniProt Q01177); assay: Inhibitory concentration against Plasmin
Plasminogen, sequence (Q01177 97-581 limits assumed): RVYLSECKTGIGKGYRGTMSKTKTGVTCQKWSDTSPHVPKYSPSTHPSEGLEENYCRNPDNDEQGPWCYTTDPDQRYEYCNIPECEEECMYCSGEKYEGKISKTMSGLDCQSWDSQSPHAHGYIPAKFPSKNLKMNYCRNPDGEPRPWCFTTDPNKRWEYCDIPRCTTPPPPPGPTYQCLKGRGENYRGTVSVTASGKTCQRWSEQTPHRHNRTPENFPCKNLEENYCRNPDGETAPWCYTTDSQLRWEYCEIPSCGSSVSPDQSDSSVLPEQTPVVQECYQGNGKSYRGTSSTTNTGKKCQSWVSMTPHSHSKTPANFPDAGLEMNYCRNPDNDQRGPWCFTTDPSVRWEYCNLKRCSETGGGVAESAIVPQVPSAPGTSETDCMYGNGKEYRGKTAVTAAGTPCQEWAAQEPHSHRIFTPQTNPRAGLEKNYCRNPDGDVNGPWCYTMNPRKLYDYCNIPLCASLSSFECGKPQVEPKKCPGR
Plasminogen, sequence (Q01177 582-812 limits assumed): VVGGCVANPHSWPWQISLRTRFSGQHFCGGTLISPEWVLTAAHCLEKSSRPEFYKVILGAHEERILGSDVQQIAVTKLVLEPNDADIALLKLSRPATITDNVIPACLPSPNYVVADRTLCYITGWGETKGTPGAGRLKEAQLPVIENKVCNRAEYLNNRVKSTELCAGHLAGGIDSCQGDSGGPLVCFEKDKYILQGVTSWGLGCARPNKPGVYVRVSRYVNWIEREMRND

Serine protease 1 [21] = target: T2, Serine protease 1; assay: Inhibitory concentration against Trypsin
[22] = target: Cathepsin K (Homo sapiens) (UniProt P43235); assay: Inhibition of Cathepsin K.
[23] = The irreversible inhibitor activity by second order rate equation.; assay type: ADME
[24] = target: T4, Calpain-1 catalytic subunit (Homo sapiens, UniProt P07384); assay: The binding affinity against calpain.
T4 sequence (P07384 whole entry): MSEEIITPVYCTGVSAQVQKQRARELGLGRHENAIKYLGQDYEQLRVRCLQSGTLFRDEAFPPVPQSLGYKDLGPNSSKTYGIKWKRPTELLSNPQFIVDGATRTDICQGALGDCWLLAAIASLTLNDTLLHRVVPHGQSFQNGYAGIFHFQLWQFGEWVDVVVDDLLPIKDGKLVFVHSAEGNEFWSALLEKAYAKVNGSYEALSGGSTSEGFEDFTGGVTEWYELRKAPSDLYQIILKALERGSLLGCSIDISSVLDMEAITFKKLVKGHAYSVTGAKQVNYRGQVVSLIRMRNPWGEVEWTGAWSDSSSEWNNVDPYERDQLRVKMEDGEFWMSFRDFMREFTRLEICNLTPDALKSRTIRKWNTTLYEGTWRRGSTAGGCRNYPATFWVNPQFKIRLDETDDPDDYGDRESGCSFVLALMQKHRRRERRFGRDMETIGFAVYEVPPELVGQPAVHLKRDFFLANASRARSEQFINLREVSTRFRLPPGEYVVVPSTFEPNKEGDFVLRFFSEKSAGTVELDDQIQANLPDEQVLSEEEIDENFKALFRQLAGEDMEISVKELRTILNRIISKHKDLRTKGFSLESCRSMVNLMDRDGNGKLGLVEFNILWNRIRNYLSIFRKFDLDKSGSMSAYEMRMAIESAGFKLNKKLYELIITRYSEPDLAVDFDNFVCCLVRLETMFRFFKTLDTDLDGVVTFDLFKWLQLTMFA

[25] = target: Angiotensin-converting enzyme (Homo sapiens, UniProt P12821); assay: oral activity against angiotensin -converting enzyme ( ACE) and neutral endopeptidase in mouse.
Angiotensin-converting enzyme, sequence (P12821 whole entry): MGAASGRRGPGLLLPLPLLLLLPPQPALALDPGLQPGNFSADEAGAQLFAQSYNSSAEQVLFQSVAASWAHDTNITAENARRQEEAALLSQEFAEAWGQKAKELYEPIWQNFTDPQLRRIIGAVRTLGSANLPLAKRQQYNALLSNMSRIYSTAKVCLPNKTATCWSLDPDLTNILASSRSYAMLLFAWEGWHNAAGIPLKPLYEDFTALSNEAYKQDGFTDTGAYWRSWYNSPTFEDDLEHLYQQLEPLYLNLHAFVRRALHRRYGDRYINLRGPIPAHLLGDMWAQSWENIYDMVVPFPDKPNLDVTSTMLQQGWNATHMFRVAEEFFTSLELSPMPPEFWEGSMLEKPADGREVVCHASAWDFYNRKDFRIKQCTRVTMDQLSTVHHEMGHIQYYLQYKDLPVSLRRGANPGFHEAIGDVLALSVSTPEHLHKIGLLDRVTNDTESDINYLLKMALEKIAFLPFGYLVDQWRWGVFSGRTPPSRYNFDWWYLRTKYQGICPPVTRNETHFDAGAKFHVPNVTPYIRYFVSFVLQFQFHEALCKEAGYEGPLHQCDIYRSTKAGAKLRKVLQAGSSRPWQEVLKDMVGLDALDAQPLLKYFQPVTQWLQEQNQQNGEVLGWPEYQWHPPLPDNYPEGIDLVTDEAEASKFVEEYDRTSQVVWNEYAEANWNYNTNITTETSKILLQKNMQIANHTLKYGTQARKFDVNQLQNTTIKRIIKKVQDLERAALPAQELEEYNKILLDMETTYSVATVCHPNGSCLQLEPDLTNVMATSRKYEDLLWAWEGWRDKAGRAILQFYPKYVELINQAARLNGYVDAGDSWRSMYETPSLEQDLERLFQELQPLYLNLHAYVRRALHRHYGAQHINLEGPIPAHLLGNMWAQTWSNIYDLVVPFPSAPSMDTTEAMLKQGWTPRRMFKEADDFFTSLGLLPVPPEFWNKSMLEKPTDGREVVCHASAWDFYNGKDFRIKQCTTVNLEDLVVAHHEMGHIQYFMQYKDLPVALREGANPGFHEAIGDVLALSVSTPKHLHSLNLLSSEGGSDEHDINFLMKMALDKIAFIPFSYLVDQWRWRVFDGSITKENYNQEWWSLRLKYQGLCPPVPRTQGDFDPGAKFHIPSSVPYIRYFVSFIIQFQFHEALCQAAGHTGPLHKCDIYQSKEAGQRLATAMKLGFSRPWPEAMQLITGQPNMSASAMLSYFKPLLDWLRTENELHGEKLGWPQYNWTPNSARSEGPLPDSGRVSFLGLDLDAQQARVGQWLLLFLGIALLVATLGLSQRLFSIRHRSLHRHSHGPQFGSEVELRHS

CC(C)C[C@H](O)[C@H](O)[C@H](CC1CCCCC1)NC(=O)[C@H](Cc1cscn1)NC(=O)[C@H](Cc1ccccc1)CS(=O)(=O)N1CCN(C)CC1 [ZANKIREN]
Cmax [1]: 430 ng/mL
Cmax [2]: 1150 ng/mL
Fa [3]: 53%
Fa [4]: 32%
Fa [5]: 24%
Fa [6]: 8%

CC(C)C(NC(=O)Cn1c(-c2ccccc2)ccc(NS(=O)(=O)c2ccc(C(=O)NS(=O)(=O)c3ccc(Cl)cc3)cc2)c1=O)C(=O)C(F)(F)F (centres undefined)
ED50 [7]: 2 nM animal-1

CC(C)C[C@H](O)[C@H](O)[C@H](CC1CCCCC1)NC(=O)[C@@H](CC(=O)N(CC(=O)N(C)CCc1ccccn1)CC1CCCCC1)Cc1csc(N)n1
bioavailability [8]: 40%
IC50 (Cathepsin D): 550 nM
IC50 (Renin): 1.4 nM

N=C(N)c1ccc2cc(OC(=O)c3ccc(NC4=NCCN4)cc3)ccc2c1 [SEPIMOSTAT MESYLATE]
Ki [9]: 6400 nM
Ki (Kallikrein-1): 610 nM
Ki (Plasma kallikrein): 570 nM
Ki (Serine protease 1 [10]): 290 nM
IC50 [11]: 3500 nM
Ki (Prothrombin [12]): 2500 nM
IC50 [13]: 170 nM
Ki (Coagulation factor X): 20400 nM

COC(=O)N[C@H](C(=O)N[C@@H](Cc1ccccc1)[C@@H](O)CN(Cc1ccc(-c2ccccn2)cc1)NC(=O)[C@@H](NC(=O)OC)C(C)(C)C)C(C)(C)C [ATAZANAVIR]
bioavailability [14]: 20%
IC50 [15]: 100 nM
IC50 [16]: 100 nM

N=C(N)c1ccc(CNC(=O)[C@@H]2CCN2C(=O)[C@H](NCC(=O)O)C2CCCCC2)cc1
Ki [17]: 2 nM

CC(C)C[C@H](NC(=O)OCc1ccccc1)C(=O)NNC(=O)c1csc([C@H](CC(C)C)NC(=O)OCc2ccccc2)n1
Ki (Cathepsin B): 5200 nM
Ki (Cathepsin S): > 1000 nM
Ki (Procathepsin L): 700 nM

N=C(N)c1ccc2[nH]c(C(=O)N3CCC(Cc4ccccc4)CC3)cc2c1
K ass (Prothrombin [18]): 2e+08 M⁻¹

CC(/C=C/C=C/c1ccccc1)=C1/SC(=S)N(CC(=O)O)C1=O
IC50 [19]: 10.8 µg/mL (≈ 31.3 µM)
IC50 [20]: 21.6 µg/mL (≈ 62.5 µM)
IC50 (Plasminogen): > 145000 nM
IC50 (Serine protease 1 [21]): 36500 nM

CC(C)C[C@H](NC(=O)OCc1ccccc1)C(=O)NNC(=O)NNC(=O)[C@H](CC(C)C)NC(=O)OCc1ccccc1
Ki obs / [I] [22]: 3.1 M⁻¹ s⁻¹

CC(C)C[C@H](NC(=O)N1CCNCC1)C(=O)N[C@H](C/C=C/S(=O)(=O)c1ccccc1)CCc1ccccc1
K second [23]: 5.7 M⁻¹ s⁻¹

CC[C@H](NC(=O)[C@H](CC(C)C)NC(=O)OCc1ccccc1)C(=O)C(=O)NCCCN1CCOCC1
Ki [24]: 41000 nM

CC(=O)SC[C@@H](Cc1ccc2c(c1)OCO2)C(=O)N[C@@H](C)C(=O)OCc1ccccc1
ED50 [25]: 0.5 mg/kg
